From US20250346581A1, “PROCESS FOR SYNTHESIS OF GALBULIMIMA ALKALOID 18 AND COMPOUNDS USEFUL AS OPIOID RECEPTOR ANTAGONISTS AND AGONISTS” (The Scripps Research Institute, priority 2022, published 2025)
Entries after “also recorded” stand apart in the source; their conditions may differ. Like-named read-outs stand apart in the source and are kept apart here. Marks after values point to notes of the source that are not given here. Each block holds one molecule with its values, some of them ahead of it.

How the values were obtained:
mammals [1] = conditions: in vivo; cited from earlier work
KOR [2] = biological target: T1, KOR (Homo sapiens, UniProt P41145); test: KOR cAMP inhibition screening, agonist mode
KOR [3] = biological target: T1, KOR; test: KOR cAMP inhibition screening, antagonist mode vs. 100 nM U69,593; conditions: Antagonist vs. 100 nM U69,593 IC50 (nM)
mammals [4] = conditions: cited from earlier work
KOR [5] = biological target: T1, KOR
cats = conditions: 2.5 mg/kg, i.v. administration; cited from earlier work
[6] = biological target: T2, kappa-opioid receptors (KOR) (Homo sapiens, UniProt P41145); test: NIMH PDSP radioligand displacement, [3H]U-69593; assay type: binding; conditions: for displacement of [3H]U-69593 from KOR: 10 μM
T2 construct: NIMH Psychoactive Drug Screening Program (screening service)

[7] = biological target: T3, mu-opioid receptors (MOR) (Homo sapiens, UniProt P35372); test: NIMH PDSP radioligand displacement, [3H]DAMGO; assay type: binding; conditions: 10 μM
T3 construct: NIMH Psychoactive Drug Screening Program (screening service)

>40 common drug targets = test: NIMH PDSP binding screen of common drug targets; conditions: 10 μM
KOR [8] = biological target: T1, KOR; test: TANGO assay KOR; assay type: cell-based
MOR = MOR (Homo sapiens, UniProt P35372); test: TANGO assay MOR; assay type: cell-based
delta-opioid receptors = delta-opioid receptors (Homo sapiens, UniProt P41143); test: Follow-up assay delta-opioid receptor; assay type: cell-based
[9] = biological target: nociceptin opioid receptors (Homo sapiens, UniProt P41146); test: Follow-up assay nociceptin opioid receptor; assay type: cell-based
Mas-related GPCRs = test: Follow-up assay Mas-related GPCRs; assay type: cell-based
M1-5 = test: Muscarinic receptor binding (FIG. 3)
Description: Thus, the topology changes that differentiate the two subclasses also differentiate target selectivity.

mouse [10] = conditions: 5 mg/kg; cited from earlier work
mouse [11] = conditions: 5 mg/kg; cited from earlier work; remark: listed apart in the source
rabbit intestine = conditions: 0.1 mg/L, furmethide-induced spasm; cited from earlier work
[12] = read-out: Agonist Emax (% U69,593)
[13] = read-out: Agonist Emax (% U69,593), KOR cAMP, agonist mode

T1 sequence (P41145 whole entry): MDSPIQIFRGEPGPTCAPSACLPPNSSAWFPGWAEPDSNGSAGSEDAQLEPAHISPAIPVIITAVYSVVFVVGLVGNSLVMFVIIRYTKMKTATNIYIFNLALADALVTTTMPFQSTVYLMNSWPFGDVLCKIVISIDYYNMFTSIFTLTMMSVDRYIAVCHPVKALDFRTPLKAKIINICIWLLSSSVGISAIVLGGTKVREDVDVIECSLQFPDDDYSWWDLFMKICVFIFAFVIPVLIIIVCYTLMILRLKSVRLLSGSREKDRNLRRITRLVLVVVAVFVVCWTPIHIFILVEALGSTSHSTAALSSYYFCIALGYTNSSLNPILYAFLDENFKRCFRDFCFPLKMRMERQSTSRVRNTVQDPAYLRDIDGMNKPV
T2 sequence (P41145 whole entry): as above
Chain of MOR (P35372 whole entry): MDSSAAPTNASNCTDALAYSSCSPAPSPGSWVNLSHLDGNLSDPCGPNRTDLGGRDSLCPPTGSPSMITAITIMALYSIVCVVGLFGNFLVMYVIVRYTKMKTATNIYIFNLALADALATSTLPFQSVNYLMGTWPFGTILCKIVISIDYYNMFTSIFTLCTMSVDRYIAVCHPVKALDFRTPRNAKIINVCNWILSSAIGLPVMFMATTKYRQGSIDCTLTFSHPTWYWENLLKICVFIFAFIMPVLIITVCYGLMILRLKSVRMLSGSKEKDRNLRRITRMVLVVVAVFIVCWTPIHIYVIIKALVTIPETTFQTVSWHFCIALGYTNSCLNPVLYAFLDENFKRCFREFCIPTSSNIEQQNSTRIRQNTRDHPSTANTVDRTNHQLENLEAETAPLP
T3 sequence (P35372 whole entry): as above
Chain of delta-opioid receptors (P41143 whole entry): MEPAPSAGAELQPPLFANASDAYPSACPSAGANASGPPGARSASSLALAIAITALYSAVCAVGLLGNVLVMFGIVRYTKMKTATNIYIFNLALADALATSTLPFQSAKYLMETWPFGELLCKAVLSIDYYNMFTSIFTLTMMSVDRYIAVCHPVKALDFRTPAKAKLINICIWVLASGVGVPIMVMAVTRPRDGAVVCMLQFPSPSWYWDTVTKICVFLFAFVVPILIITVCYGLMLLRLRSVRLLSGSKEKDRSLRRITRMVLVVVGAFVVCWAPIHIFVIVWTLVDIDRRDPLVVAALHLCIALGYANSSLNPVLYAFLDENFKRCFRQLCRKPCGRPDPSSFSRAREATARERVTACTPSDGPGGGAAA
Chain of nociceptin opioid receptors (P41146 whole entry): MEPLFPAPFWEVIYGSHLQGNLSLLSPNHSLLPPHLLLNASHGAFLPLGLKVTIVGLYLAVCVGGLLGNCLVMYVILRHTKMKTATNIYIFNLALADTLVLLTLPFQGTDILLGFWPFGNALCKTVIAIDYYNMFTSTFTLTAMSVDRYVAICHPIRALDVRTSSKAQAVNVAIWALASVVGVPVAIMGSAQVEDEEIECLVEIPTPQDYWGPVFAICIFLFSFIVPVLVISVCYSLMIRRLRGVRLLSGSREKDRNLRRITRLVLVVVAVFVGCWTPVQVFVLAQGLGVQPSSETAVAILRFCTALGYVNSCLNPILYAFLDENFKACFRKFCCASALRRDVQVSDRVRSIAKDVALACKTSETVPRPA

Molecule: himandravine
- CNS depression (mammals [1]): strong CNS depression
- anticonvulsant activity against electroshock seizure (mammals [1]): anticonvulsant activity

Molecule: COC(=O)C1=CC23CCCCC2[C@@H]2C[C@H](c4cccnc4)C4(C)OC23[C@@H]14 (stereo partly drawn)
- Emax (KOR [2]; [12]): 19%
- IC50 (KOR [3]): > 10000 nM

Molecule: CC1CCCC([C@H]2C[C@H]3C4CCCCC45C=C(I)[C@H]4C2(C)OC345)N1C (stereo partly drawn)
- IC50 (KOR [3]): 1400 nM

Molecule: CC1CCCC(C=CC2C3CCCCC3CC3C(=O)OC(C)C32)N1 (stereo not drawn) [himbeline]
- depressant and hypotensive activity (mammals [4]; no dose listed): weakly depressant and hypotensive

Molecule: CC1CCCC(C2CC3C4CCCCC45C=C(I)C4C2(C)OC345)N1C (stereo not drawn)
- IC50 (KOR [3]): 830 nM

Molecule: COCC1=CC23CCCCC2C2CC(C4CCCC(C)N4C)C4(C)OC23C14 (stereo not drawn)
- Emax (KOR [2]; [12]): 14%
- IC50 (KOR [3]): 3220 nM

- Agonist Emax (% U69,593) (KOR [5]): 10* % U69,593
- IC50 (KOR [3]): > 10000 nM
Molecule: COC(=O)C1CC23CCCCC2C2CC(C4CCCC(C)N4)C4(C)OC23C14 (stereo not drawn) [drawing 154]

Molecule: COC1CC23CCCCC2C2CC(C4CCCC(C)N4)C4(C)OC23C14 (stereo not drawn) [drawing 167]
- Agonist Emax (% U69,593) (KOR [2]): 10* % U69,593
- IC50 (KOR [3]): 6250 nM

Molecule: CC1CCCC(C2CC3C4CCCCC45C=C(CO)C4C2(C)OC345)N1C (stereo not drawn)
- Emax (KOR [2]; [12]): 12%
- IC50 (KOR [3]): 116 nM

- Emax (KOR [2]; [13]): 4%
Molecule: CC1CCCC(C2CC3C4CCCCC45C=C(C4=NCCO4)C4C2(C)OC345)N1C (stereo not drawn)

Molecule: COC1CC23CCCCC2C2CC(C4CCCC(C)N4)C4(C)OC23C14 (stereo not drawn) [drawing 168]
- Emax (KOR [2]; [12]): 17%

- Emax (KOR [2]; [13]): 10%
Molecule: COCC(=O)C1=CC23CCCCC2C2CC(C4CCCC(C)N4C)C4(C)OC23C14 (stereo not drawn)

Molecule: COC(=O)C1=C2C3(O)CC4CC5C3CCC(C)N5C24C2CCCC(OC)C2C1OC(=O)c1ccccc1 (stereo not drawn) [Himandrine]
- heart rate (cats): reduced heart rate
- hypotension (cats): marked and sustained hypotension

- Emax (KOR [2]; [13]): 2%
Molecule: C=CCN1C(C)CCCC1C1CC2C3CCCCC34C=C(C(=O)OC)C3C1(C)OC234 (stereo not drawn)

Molecule: COC(=O)C1=CC23CCCCC2C2CC(C4CCCC(C)N4C(C)=O)C4(C)OC23C14 (stereo not drawn)
- Emax (KOR [2]; [12]): 10%
- IC50 (KOR [3]): > 10000 nM

- Emax (KOR [2]; [13]): 13%
- IC50 (KOR [3]): 5000 nM
Molecule: COC(=O)C1CC23CCCCC2C2CC(C4CCCC(C)N4)C4(C)OC23C14 (stereo not drawn) [drawing 153]

Molecule: COC(=O)C1=C2C3(O)CC4CC5C3CCC(C)N5C24C2CCC(O)C(OC)C2C1OC(=O)c1ccccc1 (stereo not drawn) [himandridine]
- hypotensive activity (mammals [4]; 2.5 mg/kg): moderate to marked hypotensive activity

Molecule: CCOC(=O)C1=CC23CCCCC2C2CC(C4CCCC(C)N4C)C4(C)OC23C14 (stereo not drawn)
- Emax (KOR [2]; [12]): 15%
- IC50 (KOR [3]): 3390 nM

- Emax (KOR [2]; [13]): 8%
Molecule: CC1CCCC(C2CC3C4CCCCC45C=C(C#N)C4C2(C)OC345)N1C (stereo not drawn)

Molecule: COC(=O)C1=CC23CCCCC2[C@@H]2C[C@H](c4cccc(C)c4)C4(C)OC23[C@@H]14 (stereo partly drawn)
- Agonist Emax (% U69,593) (KOR [2]): 60* % U69,593
- EC50 (KOR [2]): 1050 nM

Molecule: C#CCOC(=O)C1=CC23CCCCC2C2CC(C4CCCC(C)N4)C4(C)OC23C14 (stereo not drawn)
- Emax (KOR [2]; [12]): 5%
- IC50 (KOR [3]): 556 nM

Molecule: COC(=O)C1=CC23CCCCC2[C@@H]2C[C@H](C4CCCC(C)N4)C(C)(O3)[C@H]12 (single isomer, unassigned) [nat-GB18]
- displacement of [3H]U-69593 from KOR [6]: 87%
- displacement of [3H]DAMGO from MOR [7]: 85%
- binding to >40 common drug targets (>40 common drug targets): low or statistically-insignificant
- IC50 (KOR [8]; TANGO, antagonist): 10 nM
- IC50 (MOR; TANGO, antagonist): 12 nM
- ligation of delta-opioid receptors (delta-opioid receptors): not strongly ligated
- ligation of nociceptin opioid receptors [9]: not strongly ligated
- ligation of Mas-related GPCRs (Mas-related GPCRs): not strongly ligated

Molecule: COC(=O)C1=C[C@@]23CCCC[C@H]2[C@@H]2C[C@H]([C@H]4CCC[C@@H](C)N4)C(C)(O3)[C@H]12 [GB18, methyl (2R,3aS,5aR,9aS,9bS)-3-methyl-2-((2R,6R)-6-methylpiperidin-2-yl)-1,2,3,3a,6,7,8,9,9a,9b-decahydro-3,5a-epoxycyclopenta[a]naphthalene-4-carboxylate]
- antagonism of KOR (KOR [8]; FIG. 3): high potency
- antagonism of MOR (MOR; FIG. 3): high potency
- binding to M1-5 (M1-5): does not bind
- inhibition of mouse preening (mouse [10]): inhibition of preening; also recorded: inhibited mouse preening
- effect on pain threshold (mouse [11]): without effect; also recorded: no effect

Molecule: COC(=O)C1=CC23CCCCC2[C@H]2C[C@@H](C4CCCC(C)N4)C(C)(O3)[C@@H]12 (single isomer, unassigned) [ent-GB18]
- displacement of [3H]U-69593 from KOR [6]: 56%
- Ki ([6]; [3H]U-69593 displacement): 1100 nM

Molecule: C[C@@H]1CC[C@H]2[C@H](C[C@@H]3C[C@@]2(O)C2=CC(=O)[C@H]4CCCC[C@@H]4[C@H]23)N1C [Himbadine]
- antispasmodic activity (rabbit intestine): significant antispasmodic activity

- Emax (KOR [2]; [13]): 5%
Molecule: COC1CC23CCCCC2C2CC(c4cccc(C)n4)C4(C)OC23C14 (stereo not drawn)

- Emax (KOR [2]; [13]): 12%
Molecule: CC(=O)C1=CC23CCCCC2C2CC(C4CCCC(C)N4C)C4(C)OC23C14 (stereo not drawn)
